# Reference: ChEMBL document CHEMBL1150873, “A new lysine derivative and new 3-bromopyrrole carboxylic acid derivative from two marine sponges” (J Nat Prod, 1998)
# What was measured:
# Artemia = assay: (§1) Toxicity in brine shrimp; format: organism-based; details: in vivo
# [1] = as §1; format: organism-based; details: artemia, in vivo
# P388 = assay: Cytotoxicity against mouse P388 cells; format: functional, cell-based
Structure (SMILES),Activity (Artemia),LC50 [1],IC50 (P388)
O=C1CCNC(=O)c2[nH]c(Br)cc21,Not Active,,
C=C(C)[C@H]1CCC[C@@]2(C)CCC[C@@](C)(SC#N)[C@@H]12,,50 µg/mL,
O=C1NCC(O)n2cc(Br)cc21 (stereo not drawn),Not Active,,
O=C(O)/C1=N/CCCC[C@@H](C(=O)O)N1,Not Active,,
C=C(C)[C@H]1CCC[C@@]2(C)CCC[C@@](C)(NC=O)[C@@H]12,,50 µg/mL,1.2 µg/mL
[C-]#[N+][C@]1(C)CCC[C@]2(C)CCC[C@H](C(=C)C)[C@@H]21,,,8.3 µg/mL
O=C1CCNC(=O)c2[nH]ccc21 [ALDISIN],Not Active,,
